Assay results: patent publication US8003595B2, “Amino acid sequences facilitating penetration of a substance of interest into cells and/or cell nuclei” (Cellectis, priority 2000, dated 2011)
Like-named read-outs stand apart in the source and are kept apart here. Marks after values point to notes of the source that are not given here.

How the values were obtained:
[1] = ELISA fixation of biotinylated peptides on sensitized plates; assay type: binding; details: for Kd: read-out: avidity (Kd), quantity of peptides necessary to obtain 50% fixation, Heparin; for EC50: ELISA plates sensitized with heparin, Table 4, read-out: avidity: quantity of peptides necessary to obtain 50% fixation, Heparin
Experimental: (§1) The capacity of peptides SEQ ID NO: 1 to 21 to attach themselves to DNA and heparin is evaluated on ELISA plates sensitized with DNA or heparin. Dilutions of biotinylated peptides are deposited on the plates and their fixation is shown using streptavidin conjugated with peroxidase. […] The avidity of each of the peptides for DNA or heparin is evaluated by the quantity (×10^−6 M) of peptides necessary to obtain 50% fixation.

[2] = tested on: H1299 cells; test: Internalization of covalent peptide-peroxidase conjugates; assay type: cell-based, human; details: for quantity of peptide internalized: 2 hours
Experimental: To evaluate more directly the penetration of the peptides, avoiding the avidin-peroxidase bias, some of the peptides in sequences SEQ ID NO: 25 to 48 were conjugated covalently with cysteine in the C-terminal position of the peptide to peroxidase. The peptides were coupled with peroxidase in the following way:
One mg of peroxidase activated with maleimide (Sigma) in 100 μl of sodium phosphate buffer, NaCl 0.15 M, EDTA 5 mM, had 1 mg of peptide added to it. After 2 hours at laboratory temperature, β-mercaptoethanol is added to a final concentration of 1.5 mM for 15 minutes. The uncoupled peptide is eliminated by centrifugation on ultrafiltration membranes (cut-off threshold=30,000 Daltons, Sartorius), followed by three washings in sodium phosphate buffer 0.1 M, pH 7.4 containing 0.15 M NaCl.
The H1299 cells are incubated for 2 hours with the conjugates at increasing concentrations of peptide-peroxidase in the culture medium, then washed with PBS. The cells are lysed and the quantity of peptide internalized is evaluated by the dosage of peroxidase in the lysate of the cells with reference to a curve established with peptide-peroxidase.
The quantity of peptide internalized (pg/10^3 cells), depending on the concentrations of conjugates in the culture medium, is shown in Table 8 below.
It appears that the higher the concentration of peptide-peroxidase conjugate in the culture medium, the more the quantity internalized increases. To compare the penetration of the conjugates by cell type, the cells from different lines were incubated with 0.2 μg/ml of peptide-peroxidase conjugate for 2 hours, and the quantity of peroxidase dosed in the lysates. Table 9 and Table 9B below give the results expressed in pg/10^3 cells. The quantity of each peptide internalized in the different lines generally varies only from single to double.

[3] = ELISA fixation of biotinylated peptides on sensitized plates; assay type: binding; details: for Kd: read-out: avidity (Kd), quantity of peptides necessary to obtain 50% fixation, Chondroitin A, Table 5; for EC50: Table 4, read-out: avidity: quantity of peptides necessary to obtain 50% fixation, Chondroitin A
[4] = as above; assay type: binding; details: for Kd: read-out: avidity (Kd), quantity of peptides necessary to obtain 50% fixation, Chondroitin B, Table 5; for EC50: Table 4, read-out: avidity: quantity of peptides necessary to obtain 50% fixation, Chondroitin B
[5] = as above; assay type: binding; details: for Kd: read-out: avidity (Kd), quantity of peptides necessary to obtain 50% fixation, Chondroitin C, Table 5; for EC50: Table 4, read-out: avidity: quantity of peptides necessary to obtain 50% fixation, Chondroitin C
[6] = tested on: H1299 cells; test: Internalization of biotinylated peptide/S-PO complexes; assay type: cell-based, human
Experimental: A biotinylated/S-PO peptide or biotinylated/A-PO complex (A-PO for avidin-peroxidase) is prepared extemporaneously in two ways:
1) either in a peptide: S-PO or A-PO molar ratio of 4:1 (for example, 1.4 μg of peptide with a molecular weight of 3500 to 10 μg of S-PO; the weight of S-PO used varies depending on the peptides since their molecular weights are different).
2) or in a peptide: S-PO or A-PO molar ratio of 25:1 (for example 1.7 μg of peptide with a molecular weight of 3500 to 1 μg of S-PO).
The complexes are prepared by incubating the biotinylated peptide with S-PO or A-PO in PBS in a volume of 5 to 10 μl for 15 minutes at laboratory temperature. They are then diluted in 1 ml of complete culture medium, filtered on a 0.2 micron membrane and incubated with the cells for 4 hours. The cells are then washed three times with PBS.
To study the penetration of the complexes under a microscope, the cells are fixed as before for 15 minutes in ethanol at −20° C., they are washed with PBS, and the activity of the internalized peroxidase is shown by diaminobenzidine in the presence of H2O2. To measure the quantity of peptide/S-PO or A-PO complexes internalized, the cells are trypsinized, transferred into microtubes and counted. They are washed twice by centrifugation, then the residue is suspended in 200 μl of lysis buffer (Tris buffer, 0.1 M, pH8, 0.5% Nonidet). After 15 minutes, the peroxidase contained in the lysis buffer is dosed onto 96-well plates with ortho-dianisidine and H2O2 by comparison with a standard curve for S-PO. The reading is taken at 450 nm. The quantity contained in the different samples is expressed in picograms (pg) per 10^4 cells.
Table 7 below reports the results of evaluating the influence of SEQ ID NO: 1 on the penetration of peptides coupled to SEQ ID NO: 1 into H1299 cells, where
Concentration a: 25 peptides to one molecule of S-PO (1 μg),
Concentration b: 4 peptides to one molecule of S-PO (10 μg).

[7] = tested on: DNA; test: ELISA fixation of biotinylated peptides on sensitized plates; assay type: binding; details: ELISA plates sensitized with DNA; read-out: avidity: quantity of peptides necessary to obtain 50% fixation, DNA
Experimental: as §1

[8] = Conc. a: 25 peptides to one molecule of S-PO (1 μg)
[9] = Conc. b: 4 peptides to one molecule of S-PO (10 μg)

| Substance | EC50 [1] [nM] | EC50 [7] [nM] | EC50 [3] [nM] | EC50 [4] [nM] | EC50 [5] [nM] | further results |
| --- | --- | --- | --- | --- | --- | --- |
| RKKRRRGDRKKRRRGD [SEQ ID NO: 28] | – | – | – | – | – | avidity (Kd), quantity of peptides necessary to obtain 50% fixation, Heparin ([1]; Table 5): lost its affinity for heparin; Kd ([1]; Table 5): 407 nM; percentage of quantity of peroxidase internalized compared to quantity deposited ([2]; 0.01 μg/ml): (0.006)* %; percentage of quantity of peroxidase internalized compared to quantity deposited ([2]; 0.1 μg/ml): (1.6) %; percentage of quantity of peroxidase internalized compared to quantity deposited ([2]; 0.5 μg/ml): (7.6) %; percentage of quantity of peroxidase internalized compared to quantity deposited ([2]; 1 μg/ml): (8.8) %; quantity of peptide internalized ([2]; peptide-peroxidase 0.01 μg/ml): 0.006 pg/10^3 cells; quantity of peptide internalized ([2]; peptide-peroxidase 0.1 μg/ml): 1.7 pg/10^3 cells; quantity of peptide internalized ([2]; peptide-peroxidase 0.5 μg/ml): 37.9 pg/10^3 cells; quantity of peptide internalized ([2]; peptide-peroxidase 1 μg/ml): 8860 pg/10^3 cells |
| RKGFYKRKQCKP [SEQ ID NO: 20] | – | – | – | – | – | Kd ([1]; Table 5): 70 nM; Kd [3]: 60 nM; Kd [4]: 40 nM; Kd [5]: 100 nM; S-PO internalized ([6]; peptide: S-PO complexes of 4:1, peptide concentration of 1 μg): 431 pg/10^4 cells |
| VKRGLKLVKRGLKLVKRGLKL [compound 3] | 41 | 50 | 37 | 41 | 35 | – |
| LRKRLLRD [compound 17] | > 150000 | > 150000 | > 150000 | > 150000 | > 150000 | – |
| VKRGLKLVRRSGRVVVPAAPRNRD [compound 9] | 3700 | 3700 | 17 | 500 | > 8000 | – |
| LRRERQSRLRRERSQSR [SEQ ID NO: 39] | – | – | – | – | – | Kd ([1]; Table 5): 100 nM; Kd [3]: 100 nM; Kd [4]: 100 nM; Kd [5]: 100 nM |
| SEQ ID NO: 15: twice the CDR3 region peptide of anti-DNA human monoclonal antibody NE-1 (RGVRPRVTRMDVRHVRPRVTRMDV; listed as Homo sapiens) | – | – | – | – | – | S-PO internalized [6, 8]: 250 pg/10^4 cells; S-PO internalized [6, 9]: 6670 pg/10^4 cells |
| VKRGLKL [compound 1] | > 100000 | > 100000 | > 100000 | > 100000 | > 100000 | – |
| KSRK [compound 18] | > 134 | > 134000 | > 134000 | > 134000 | > 134000 | – |
| RHVRPRVTRMDVVKRGLKLRHVRPRVTRMDV [compound 16] | 24 | 19 | 12 | 9 | 2 | – |
| SEQ ID NO: 16: inclusion, in position 13-19, of SEQ ID NO: 1 in SEQ ID NO: 15 (RHVRPRVTRMDVVKRGLKLRHVRPRVTRMDV; listed as Homo sapiens) | – | – | – | – | – | S-PO internalized [6, 8]: 430 pg/10^4 cells; S-PO internalized [6, 9]: 5220 pg/10^4 cells |
| VKRGLKLTYYSDTVKGRFTRQYNKRA [compound 7] | 50 | 50 | 60 | 40 | 60 | – |
| RKGFYKRKQCKP [compound 20] | 70 | 90 | 60 | 40 | 100 | – |
| VRRSGRVVVPAAPRNRD [compound 8] | > 150000 | > 150000 | > 150000 | > 150000 | > 150000 | – |
| VKRGLKLRQKYNKRAMDY [compound 5] | 110 | 110 | 130 | 110 | 110 | – |
| KSRKKSRK [compound 19] | > 74000 | > 74000 | > 74000 | > 74000 | > 74000 | – |
| VKRGLKLVKRGLKL [compound 2] | 760 | 2200 | 550 | 600 | 550 | – |
| GRPRESGKKRKRKRLKP [compound 21] | 70 | 200 | 120 | 120 | 120 | – |
| RGVRPRVTRMDVRHVRPRVTRMDV [compound 15] | > 30000 | 3000 | 200 | 4000 | 5000 | – |
| RQKYNKRAMDY [compound 4] | 5000 | 4000 | 5600 | 6200 | 5000 | – |
